# Measurements reported in patent US4304679A, “Detergent product containing deodorant compositions” (priority 1978, dated 1981).
# Target: T1, lipoxidase (ECl.13.1.13) (Glycine max, UniProt P08170)
# T1 sequence (P08170 1-839): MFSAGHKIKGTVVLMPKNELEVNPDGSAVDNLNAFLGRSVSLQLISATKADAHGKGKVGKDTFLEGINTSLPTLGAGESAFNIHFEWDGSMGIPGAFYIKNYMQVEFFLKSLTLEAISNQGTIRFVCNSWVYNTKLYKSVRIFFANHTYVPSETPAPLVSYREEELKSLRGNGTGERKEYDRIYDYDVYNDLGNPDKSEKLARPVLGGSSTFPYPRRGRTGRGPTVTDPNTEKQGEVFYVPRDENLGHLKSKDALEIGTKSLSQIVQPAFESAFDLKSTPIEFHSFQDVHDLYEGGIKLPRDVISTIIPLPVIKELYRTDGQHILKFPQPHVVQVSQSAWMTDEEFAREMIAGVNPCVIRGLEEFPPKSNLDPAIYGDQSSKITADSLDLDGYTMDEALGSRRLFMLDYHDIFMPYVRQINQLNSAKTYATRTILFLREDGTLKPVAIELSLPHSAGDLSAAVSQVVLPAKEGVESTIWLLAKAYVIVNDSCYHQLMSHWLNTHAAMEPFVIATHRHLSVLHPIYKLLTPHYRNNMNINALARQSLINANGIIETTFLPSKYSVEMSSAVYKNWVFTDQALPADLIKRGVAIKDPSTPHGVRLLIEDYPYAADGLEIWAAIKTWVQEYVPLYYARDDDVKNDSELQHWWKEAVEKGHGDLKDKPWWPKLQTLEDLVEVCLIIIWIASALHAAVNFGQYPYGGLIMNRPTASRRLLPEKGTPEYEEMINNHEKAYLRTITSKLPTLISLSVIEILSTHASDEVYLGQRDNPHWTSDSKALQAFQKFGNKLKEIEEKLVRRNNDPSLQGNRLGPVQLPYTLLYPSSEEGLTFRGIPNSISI
# Assay: Lipoxidase test: inhibition of the oxidation of linoleic acid by lipoxidase
# Format: biochemical
# Conditions: test substrate made with 0.5% by weight solution of material in ethanol; pH 9.0 borate buffer; 234 nm
row,Substance,"LIC (lipoxidase inhibiting capacity, % inhibition) [%]"
1,Dimyrcetol,16
2,Tetrahydromuguol,24
3,i-Nonyl acetate,50
4,i-Nonyl formate,19
